The values that follow come from patent publication US7402593B2 (priority 2004, dated 2008).

As a reminder, the AUC(0-t) is exposure summed from dosing to a finite time, without extrapolation to infinity. As a reminder, the Cmax is the peak of the concentration-time curve. One may read the Tmax as the time from dosing to the highest level. As usually defined, the solubility is the dissolved amount per volume that the medium holds. The low end stands for little dissolved substance, the high end for much dissolved substance.

The conditions of data set [1]: compared with other PPIs such as omeprazole or lansoprazole; cited from earlier work.
The next data set in a line: in vivo. The note with it: dog, plasma, po, 50 mg/kg.

`COc1ccc2[nH]c([S+]([O-])Cc3ncc(C)c(OC)c3C)nc2n1` (racemic) [racemic tenatoprazole, 5-methoxy-2-[ [(4-methoxy-3,5-dimethyl-2-pyridyl)methyl]sulfinyl]imidazo[4,5-b]pyridine]: the “half-life in plasma relative to other PPIs” value in data set [1] is on record as “approximately seven times longer”. Besides, in “in vivo”, the AUC(0-t) worked out at 156 µg·h/mL, the peak level (Cmax) was 50.2 ng/mL and the Tmax amounted to 1.5 h. Besides, in the data set “solubility in water” (water), the solubility is under 1000 µg/mL.
Take `COc1ccc2nc([S+]([O-])Cc3ncc(C)c(OC)c3C)[n-]c2n1.[Na+]` (racemic) [sodium salt of racemic tenatoprazole]: in the data set “solubility in water” (room temperature), the “highest concentration of solution obtainable” value is at most 19 g/L.
